Results taken from US11331288B2, “Conditioning irradiated tissue for increasing vascularity” (THE BOARD OF TRUSTEES OF THE LELAND STANFORD JUNIOR …, priority 2017, dated 2022).

Assays:
[1] = test system: irradiated scalp skin; experiment: Dermal thickness of irradiated skin, H&E stained sections; format: in vivo, mice; conditions: after DFO treatment, before fat grafting; saline 256.71±16.76; not significantly less
Experimental: Adult 60-day-old male Crl:NU-Fox1^NU immunocompromised mice were used for experiments in this study. Twelve mice were treated with a total of 30 Gy external beam radiation, delivered as six fractionated doses of 5 Gy each over 12 days, followed by 5 weeks of recovery. An additional six non-irradiated mice were used as healthy controls for laser Doppler analysis (LDA) and skin analysis. Irradiated mice were divided into two treatment groups: a DFO experimental group and saline control group. Following recovery, mice underwent injection of either DFO (1 mg in 100 μl saline) or 100 μl of saline alone beneath the dermis every other day for a total of seven treatments. […] For skin analysis, scalp skin biopsy was harvested from both treatment groups following completion of radiation and then 8 weeks following fat grafting. […] Vascularity was determined with CD31 immunoflourescent staining (1:100 Ab28364; Abcam; Cambridge, Mass. and 1:200 AF547; Thermo Fisher Scientific; Waltham, Mass.) and DAPI counterstaining to visualize cell nuclei. Fluorescent images were obtained using an X-Cite 120 Fluorescence Illumination System (Lumen Dynamics Group, Inc.; Ontario, Canada) at the 20× objective. Quantification of CD31 staining was performed using ImageJ (National Institutes of Health; Bethesda, Md.), with pixel-positive area per high power field measured to determine vascular density (11). […]

[2] = test system: irradiated scalp; experiment: Laser Doppler analysis of perfusion of irradiated scalp, DFO injected beneath the dermis (Example 1); format: in vivo, mice
Experimental: (§1) Adult 60-day-old male Crl:NU-Fox1^NU immunocompromised mice were used for experiments in this study. Twelve mice were treated with a total of 30 Gy external beam radiation, delivered as six fractionated doses of 5 Gy each over 12 days, followed by 5 weeks of recovery. An additional six non-irradiated mice were used as healthy controls for laser Doppler analysis (LDA) and skin analysis. Irradiated mice were divided into two treatment groups: a DFO experimental group and saline control group. Following recovery, mice underwent injection of either DFO (1 mg in 100 μl saline) or 100 μl of saline alone beneath the dermis every other day for a total of seven treatments.
(§2) After irradiation, fat grafting was performed on the irradiated mice. After informed consent was obtained, lipoaspirate was obtained from three healthy female donors, with no other medical co-morbidities under an approved IRB protocol #2188. Lipoaspirate was allowed to settle for 15 minutes for layers to separate by gravity sedimentation, and then oil and blood layers were removed by vacuum aspiration. The remaining fat layer was centrifuged at 1300 rcf for 3 minutes at 4° C. Any remaining oil and blood was again removed and the remaining fat was transferred into 1 cc syringes for injection through a 14-gauge needle. Fat grafting was performed beneath the scalp by creating a subcutaneous tunnel with the needle and then injecting 200 μl of lipoaspirate in retrograde fashion while pulling the needle out.
Laser Doppler Analysis (“LDA”) was performed to measure perfusion at the irradiated site using a Perimed PIM 3 laser Doppler perfusion imager (Datavagen, Sweden). The signal generated by the LDA, laser Doppler perfusion index (LDPI), was used for comparative purposes. LDPI is a product of the blood cell velocity and concentration and is represented by a color spectrum, with black/dark blue representing low perfusion and red representing high perfusion. […]
Five images were taken of each mouse, and the average LDPI of the five images was recorded. […]

[3] = test system: inguinal fat pads transplanted to parascapular subcutaneous pockets; conditions: DFO injected fat grafts; cited from earlier work
[4] = test system: fat grafts in irradiated scalp; experiment: Fat graft volume retention by micro-CT in DFO preconditioned irradiated scalp (Example 1); format: in vivo, mice
Experimental: as §1, §2
Mice were also imaged using a MicroCAT-II in vivo X-Ray micro-CT scanner (Imtek, Inc.; Knoxville, Tenn.) two days after fat graft injection for baseline volume measurements. Fat graft volume retention was then analyzed every two weeks over a total of 8 weeks using microcomputed tomography, and images were reconstructed as three-dimensional surfaces through cubic-spline interpolation. All reconstructions were performed by a single investigator to avoid inter-observer variability.

CC(=O)N(O)CCCCCNC(=O)CCC(=O)N(O)CCCCCNC(=O)CCC(=O)N(O)CCCCCN [DFO, Deferoxamine]
dermal thickness of irradiated skin [1]: 242.09±7.22 μm | laser Doppler perfusion index at the irradiated scalp ([2]; after four treatments of 1 mg DFO every other day beneath the dermis, 176.70±2.59 after irradiation, 265.23±7.01 pre-radiation baseline, mean±SE): 205.08±2.30 LDPI | laser Doppler perfusion index following fat grafting ([2]; eight weeks following grafting, saline 119.18±4.09, p>0.05): 127.78±2.29 LDPI | laser Doppler perfusion index following fat grafting ([2]; two weeks following injection of fat grafts, saline control 65.72±2.02, p<0.05): 86.33±2.00 LDPI | inflammation and fibrosis in fat grafts [3]: more inflammation and fibrosis | fat graft volume retention ([4]; two weeks after fat grafting, saline control 74.03): 89.24% | fat graft volume retention ([4]; week 6 after fat grafting, saline 52.40, p<0.05): 73.17% | fat graft volume retention ([4]; week 8 after fat grafting, saline 49.47, p<0.05): 71.75%
